We go through 4 molecules from US7498349B2, “Biaryl compounds having anti-infective activity” (Genesoft Pharmaceuticals, Inc., priority 2002, dated 2009).

Assay [1] deals with S. aureus ATCC 27660. Nature of the assay: MIC, NCCLS broth microdilution assay. The conditions noted are these: S. aureus ATCC 27660, methicillin resistant strain (MRSA). It counts as cell-based, Staphylococcus aureus.
In assay [2] the test system is S. pneumoniae (ATCC 51422, PRSP). As to conditions: S. pneumoniae ATCC 51422, penicillin resistant strain (PRSP). The source says:
(§1) In vitro biological activity data were collected for a variety of microorganisms, including Bacillus cereus (ATCC 11778), Staphylococcus aureus (ATCC 33591; ATCC 27660, a methicillin resistant strain (MRSA); ATCC 13709, a methicillin sensitive strain (MSSA)), Escherichia coli (ATCC 25922), Enterococcus faecalis (ATCC 29212), Streptococcus pneumoniae (ATCC 49619; ATCC 51422, a penicillin resistant strain (PRSP)), Enterococcus faecium (ATCC 51559, a vancomycin resistant strain (VRE)), and Staphylococcus epidermidis (ATCC 12228). Additionally, antifungal activity data were collected for Candida albicans (ATCC 38247).
(§2) Compounds according to this invention were screened for their in vitro activities against selected species of bacteria and fungi. The minimal inhibition concentration (MIC) of these compounds was determined using the National Committee for Clinical Laboratory Standards (NCCLS) broth microdilution assay in microtiter plates, as set forth in: (1) the guidelines of the National Committee for Clinical Laboratory Standards (NCCLS) Document M7-A4 (NCCLS, 1997); (2) the guidelines of the National Committee for Clinical Laboratory Standards (NCCLS) Document M11-A4 (NCCLS, 1997); and (3) the guidelines and reference method of the National Committee for Clinical Laboratory Standards (NCCLS) Document M27 -T (NCCLS, 1995). For antifungal assays, the method recommended in Murray, PR., 1995 Manual of Clinical Microbiology (ASM Press, Washington, D.C.), was employed.
(§3) (MIC values are keyed in the same manner as Table B.)

In assay [3] the test system is E. faecium (ATCC 51559, VRE). The conditions noted are these: E. faecium ATCC 51559, vancomycin resistant strain (VRE).
From the text: as §1, §2, §3

Assay [4] concerns S. pneumoniae ATCC 49619. Description: MIC, NCCLS broth microdilution assay. The conditions noted are these: S. pneumoniae ATCC 49619. The format is cell-based, Streptococcus pneumoniae.
Assay [5] deals with E. coli ATCC 25922. Nature of the assay: MIC, NCCLS broth microdilution assay. It counts as cell-based, Escherichia coli. The conditions noted are these: E. coli ATCC 25922.
Assay [6] concerns S. aureus ATCC 33591. Description: MIC, NCCLS broth microdilution assay. The format is cell-based, Staphylococcus aureus. As to conditions: S. aureus ATCC 33591.
In assay [7] the test system is E. faecalis ATCC 29212. Nature of the assay: MIC, NCCLS broth microdilution assay. It counts as cell-based, Enterococcus faecalis. As to conditions: E. faecalis ATCC 29212.
For assay [8], the system named is S. epidermidis ATCC 12228. Nature of the assay: MIC, NCCLS broth microdilution assay. It counts as cell-based, Staphylococcus epidermidis.
The test system of assay [9] is B. cereus ATCC 11778. Nature of the assay: MIC, NCCLS broth microdilution assay. The format is cell-based, Bacillus cereus. The conditions noted are these: B. cereus ATCC 11778.
Assay [10] deals with S. aureus ATCC 13709. Description: MIC, NCCLS broth microdilution assay. The format is cell-based, Staphylococcus aureus. As to conditions: S. aureus ATCC 13709, methicillin sensitive strain (MSSA).
In assay [11] the test system is C. albicans ATCC 38247. Description: MIC, antifungal assay. It counts as cell-based, Candida albicans. As to conditions: C. albicans ATCC 38247.

With `NCCNc1snc(C(=O)Nc2ccc(-c3cc4ccccc4o3)cc2)c1Cl` [Compound A-3], the “Minimum Inhibitory Concentration (MIC)” value in [1] is “+++ (MIC ≦ 4)”; in assay [2] it was “+ (12 ≦ MIC ≦ 32)”; in [3], “+++ (MIC ≦ 4)”; in assay [4] it was “+ (12 ≦ MIC ≦ 32)”; in assay [5], >32 µg/mL; in [6], “+++ (MIC ≦ 4)”. Besides, the “Minimum Inhibitory Concentration (MIC)” value was “+++ (MIC ≦ 4)” in assay [7]; “+++ (MIC ≦ 4)” in assay [8]; “+ (12 ≦ MIC ≦ 32)” in [9]; “+++ (MIC ≦ 4)” in assay [10]; “+++ (MIC ≦ 4)” in [11].
Turning to `NCCCCNc1snc(C(=O)Nc2ccc(-c3cc4ccccc4s3)nc2)c1Cl` [Compound A-68], the “Minimum Inhibitory Concentration (MIC)” value in [1] was “+++ (MIC ≦ 4)”; in [2] it was >32 µg/mL; in [3], “+++ (MIC ≦ 4)”; in assay [4], >32 µg/mL; in assay [5] it was >32 µg/mL; in assay [6] it was “+++ (MIC ≦ 4)”. Moreover, the “Minimum Inhibitory Concentration (MIC)” value in [7], in assay [8], in assay [9], in assay [10] and in assay [11] was “+++ (MIC ≦ 4)” in each case.
Take `NCCCNc1snc(C(=O)Nc2ccc(-c3cc4ccccc4o3)cc2)c1Cl` [Compound A-2]: the “Minimum Inhibitory Concentration (MIC)” value in assay [1] was “+++ (MIC ≦ 4)”; in [2] it was “+ (12 ≦ MIC ≦ 32)”; in assay [3], “+++ (MIC ≦ 4)”; in assay [4], “+ (12 ≦ MIC ≦ 32)”; in [5], >32 µg/mL; in assay [6], “+++ (MIC ≦ 4)”. The “Minimum Inhibitory Concentration (MIC)” value in assay [7] was “+++ (MIC ≦ 4)”; in [8] it was “+++ (MIC ≦ 4)”; in assay [9], “+++ (MIC ≦ 4)”; in assay [10] it was “+++ (MIC ≦ 4)”; in assay [11], “++ (4 < MIC < 12)”.
Turning to `Cc1cc(NC(=O)c2nsc(NCCCN)c2Cl)ccc1-c1cc2ccccc2o1` [Compound A-34], the “Minimum Inhibitory Concentration (MIC)” value in assay [1] is “+++ (MIC ≦ 4)”; in [2], “+ (12 ≦ MIC ≦ 32)”; in assay [3], “+++ (MIC ≦ 4)”; in [4] it was “+ (12 ≦ MIC ≦ 32)”; in assay [5], >32 µg/mL; in [6] it was “+++ (MIC ≦ 4)”. The “Minimum Inhibitory Concentration (MIC)” value in assay [7], in [8], in assay [9], in [10] and in [11] was “+++ (MIC ≦ 4)” throughout.
